Experimental data reported in patent US20160038454A1, “INTRAVENOUS FORMULATIONS OF […] AS IMMUNOMODULATORS AND […] AGENTS” (priority 2013, published 2016).
“Also recorded” adds a separate entry of the source.

Key:
[1] = PG796(MRx102) purity (peak area %) / stability in emulsions; type: physicochemical
Description: Pharmaceutical emulsions are typically prepared at neutral to slightly alkaline pH since they are stabilized by electrostatic repulsion between droplets imparted by pH-sensitive anionic surfactants, such as phosphatidyl ethanolamine, free fatty acid salts, and cholate. However, it was possible that this pH range could be suboptimal for the chemical stability of PG796(MRx102). To test this, emulsions were prepared at different pH values ranging from 4 to 8. Buffers were included to control the pH, and the non-pH sensitive surfactant, sodium dodecyl sulfate was used in place of sodium cholate to assure a negative charge even in the low pH emulsions. All of the formulations were reasonably stable for up to 2 weeks at room temperature. […]

[2] = Solubility of PG796(MRx102) in triglyceride oils (GTO vs SBO); type: physicochemical; details: glyceryl trioctanoate vs soybean oil
[3] = test system: human T cell lymphoma (Jurkat) cells; assay: in vitro; type: cell-based
Description: Test compounds may be dissolved in DMSO at a concentration of 20 mM. Further dilutions may be done in RPMI1640 medium (GIBCO, Rockville, Md.) supplemented with 10% Fetal Calf Serum (HyClone Laboratories, Logan, Utah).
Cytotoxicity of the compounds is determined in a standard MTT assay using Cell Proliferation Kit I (#1 465 007, Roche Diagnostics, Mannheim, Germany). Briefly, human T cell lymphoma (Jurkat) cells (4×10^5 per well) are cultured for 24 h, in 96-well tissue culture plates, in the presence of serial three-fold dilutions of test compounds or medium containing the same concentration of DMSO as in the test samples at each dilution point. The cultures are then supplemented with 10 μl/well MTT reagent for 4 h and then with 0.1 ml/well solubilizing reagent for an additional 16 h. Optical density at 570 nm (OD570) is measured on a ThermoScan microplate reader (Molecular Devices, Menlo Park, Calif.).

rodents = assay: Rodent toxicology study, intravenous, seven days; type: in vivo
Description: (§1) Triptolide prodrugs are generally believed to be safer than triptolide. […] Triptolide prodrugs as an emulsion formulation are believed to have a toxicokinetic profile characterized by a flat AUC with a minimized Cmax. [In conjunction, it was postulated that a sustained inhibition of RNA polymerase is needed for optimum efficacy which in turn requires a pharmcokinetic profile of constant exposure to drug]. […] The no effect dose (“NOAEL”) of PG796(MRx102) again exceeded 1.5 mg/kg/day intravenously for seven days in rodents confirming the initial results. It is interesting to ask why a prodrug of triptolide would be safer than the natural product itself; while not wishing to be bound by theory, perhaps the answer lies in the pharmacokinetic profile of triptolide administered either directly or released from its carrier, PG796(MRx102). […] It also remained above the therapeutic levels (shown as a thick line without symbols). The difference in the Cmax/AUC profile of PG796(MRx102) vs. triptolide is believed to be due to the physiochemical properties of the lipid prodrug/emulsion formulation combination. In general, triptolide prodrugs having a cLogP greater than 0.5 are more lipid-soluble than water soluble and are expected to take longer to convert to the drug form; such characteristics may yield a flatter conversion profile and less of a drug-release Cmax spike.

[4] = Rodent toxicology study, intravenous, seven days; type: in vivo, rodents; details: in vivo, iv; intravenously for seven days in rodents; read-out: no effect dose (NOAEL)
Description: as §1

CC(C)[C@]12O[C@H]1[C@@H]1O[C@]13[C@]1(O[C@H]1C[C@H]1c4c(C(=O)c5ccccc5)oc(OC(=O)c5ccccc5)c4CC[C@@]13C)[C@@H]2O [PG796, 18-deoxo-19-dehydro-18-benzoyloxy-19-benzoyl triptolide]
PG796 (MRx102) Purity ([1]; emulsion target pH 4.0 (acetate), 0 hr): 98.9 peak area %
PG796 (MRx102) Purity ([1]; emulsion target pH 4.0 (acetate), 1 wk): 98.9 peak area %
PG796 (MRx102) Purity ([1]; emulsion target pH 4.0 (acetate), 2 wk): 97.2 peak area %
PG796 (MRx102) Purity ([1]; emulsion target pH 4.0 (acetate), 24 hr): 99.3 peak area %
PG796 (MRx102) Purity ([1]; emulsion target pH 5.0 (acetate), 0 hr): 99.2 peak area %
PG796 (MRx102) Purity ([1]; emulsion target pH 5.0 (acetate), 1 wk): 99.1 peak area %
PG796 (MRx102) Purity ([1]; emulsion target pH 5.0 (acetate), 2 wk): 98.3 peak area %
PG796 (MRx102) Purity ([1]; emulsion target pH 5.0 (acetate), 24 hr): 99.4 peak area %
PG796 (MRx102) Purity ([1]; emulsion target pH 6.0 (histidine), 0 hr): 99.2 peak area %
PG796 (MRx102) Purity ([1]; emulsion target pH 6.0 (histidine), 1 wk): 98.9 peak area %
PG796 (MRx102) Purity ([1]; emulsion target pH 6.0 (histidine), 2 wk): 98.8 peak area %
PG796 (MRx102) Purity ([1]; emulsion target pH 6.0 (histidine), 24 hr): 99.2 peak area %
PG796 (MRx102) Purity ([1]; emulsion target pH 7.0 (phosphate), 0 hr): 99.4 peak area %
PG796 (MRx102) Purity ([1]; emulsion target pH 7.0 (phosphate), 1 wk): 98.8 peak area %
PG796 (MRx102) Purity ([1]; emulsion target pH 7.0 (phosphate), 2 wk): 91.0 peak area %
PG796 (MRx102) Purity ([1]; emulsion target pH 7.0 (phosphate), 24 hr): 99.1 peak area %
PG796 (MRx102) Purity ([1]; emulsion target pH 8.0 (Tris), 0 hr): 98.7 peak area %
PG796 (MRx102) Purity ([1]; emulsion target pH 8.0 (Tris), 1 wk): 99.1 peak area %
PG796 (MRx102) Purity ([1]; emulsion target pH 8.0 (Tris), 2 wk): 98.3 peak area %
PG796 (MRx102) Purity ([1]; emulsion target pH 8.0 (Tris), 24 hr): 99.2 peak area %
pH dependence of stability of PG796(MRx102) in the emulsion ([1]; pH 4 to 8): not pH-dependent
solubility in GTO relative to SBO [2]: about 3.4 fold
cytotoxic activity in MTT assay (in words) ([3]; Jurkat cells, comparison with triptolide or PG490-88): cytotoxic; also recorded: higher level of activity
activity in MTT assay after incubation in human serum vs mouse serum ([3]; incubated in human serum compared with mouse serum): high, and essentially equivalent, activity
gross or histopathologic toxic effects (rodents; intravenous doses up to 1.5 mg/kg/day for seven days, initial rodent toxicology study): no gross or histopathologic toxic effects
toxicity relative to triptolide (times less toxic) (rodents; intravenous, emulsion formulation, rodents, gross and histopathologic criteria): at least 20 times
NOAEL at 7 days [4]: > 1.5 mg/kg/day
